Results on twelve compounds are retold here after ChEMBL document CHEMBL1201862, “PubChem BioAssay data set” (2004).

Some test systems named below: HCT-116; M19-MEL; RPMI-8226; 786-0; OVCAR-8; MOLT-4; SF-295; U-251; A549; M14; IGROV-1; UO-31; OVCAR-5; SF-268; HOP-92; PC-3; NCI/ADR-RES; MDA-MB-435; MCF7; DU-145.
Holding throughout (test): NCI tumour cell line growth inhibition, 48 h

The structures appear in SMILES notation.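 Step 1: Grow cells in 96-well plates. Step 2: Expose to compound for 48 hours at 5 concentrations. Step 3: Interpolate endpoints linearly; if unreached, use highest concentration. The concentration for 50% growth inhibition is given as GI50.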 Active and inactive are the calls of the source. Cut-off read from the data, not from the text of the source: active = GI50 up to about 1.1 µM and inactive = higher.

Turning to `COc1ccc(CNc2nc3c(NC(C)=O)cc(C(F)(F)F)cc3nc2-c2ccccc2)cc1OC`, the GI50 is 48.4 µM (inactive) with HCT-116; > 100 µM (inactive) in the assay on M19-MEL; 68.5 µM (inactive) in the assay on RPMI-8226; 37.1 µM (inactive) in the assay on 786-0; 56.8 µM (inactive) with OVCAR-8; > 100 µM (inactive) in the assay with MOLT-4. The GI50 in the assay on SF-295 is 50 µM (inactive); in the assay on U-251 it was 93.1 µM (inactive); in the assay on A549, 47.9 µM (inactive); in the assay on M14, 42.8 µM (inactive); in the assay on IGROV-1, > 100 µM (inactive); in the assay with UO-31, 7.45 µM (inactive). In addition, the GI50 was > 100 µM (inactive) in the assay with OVCAR-5 and 5.68 µM (inactive) with SF-268.
On to `CCOP(=O)(OCC)C(C(=O)OC)C(=O)C(=O)Nc1cccc([N+](=O)[O-])c1` (stereo unspecified), for which the GI50 with HCT-116, in the assay with M19-MEL, in the assay on 786-0, in the assay on OVCAR-8, with MOLT-4 and in the assay with SF-295 was > 100 µM (inactive) in each case. In addition, the GI50 in the assay with U-251, in the assay with A549, in the assay on M14, with IGROV-1, with UO-31 and in the assay on OVCAR-5 was > 100 µM (inactive) in each case. Moreover, the GI50 in the assay with SF-268 was > 100 µM (inactive).
For `COC(=O)C1C(/C=C/c2ccoc2)ON2CCC[C@@H]12` (stereo partly specified), the GI50 in the assay with M19-MEL, with 786-0, in the assay with OVCAR-8, in the assay on SF-295, with U-251 and with A549 was > 100 µM (inactive) each time. In addition, the GI50 in the assay with M14, with UO-31, in the assay with OVCAR-5, with SF-268 and in the assay on HOP-92 was > 100 µM (inactive) in each case.
Take `Cc1ccc([N+](=O)[O-])cc1NC(=O)C(=O)Cc1nc2ccc(C(=O)c3ccccc3)cc2nc1O`: the GI50 with HCT-116, with M19-MEL, in the assay on 786-0, in the assay with OVCAR-8, with MOLT-4 and in the assay with SF-295 was > 100 µM (inactive) in each case. For the same compound, the GI50 in the assay on A549 was > 100 µM (inactive); in the assay with M14, > 100 µM (inactive); with IGROV-1, > 100 µM (inactive); in the assay with UO-31, > 100 µM (inactive); in the assay on HOP-92, 42.2 µM (inactive).
`CN(C)c1ccc(C(=C(c2ccc(N(C)C)cc2)c2ccc(N(C)C)cc2)c2ccc(N(C)C)cc2)cc1`: the GI50 is 13.4 µM (inactive) with HCT-116; 26.5 µM (inactive) in the assay on M19-MEL; 7 µM (inactive) in the assay on RPMI-8226; 11.4 µM (inactive) in the assay with 786-0; 19.6 µM (inactive) with OVCAR-8; 14.6 µM (inactive) in the assay with MOLT-4. The GI50 is 13.9 µM (inactive) in the assay with SF-295; 13.9 µM (inactive) in the assay with U-251; 16.3 µM (inactive) in the assay with A549; 6.62 µM (inactive) with M14; 17.3 µM (inactive) in the assay on IGROV-1; 17.4 µM (inactive) in the assay on UO-31. Besides, the GI50 in the assay with OVCAR-5 is > 100 µM (inactive); in the assay on SF-268, 21.5 µM (inactive).
With `COc1cc2cnc(-c3ccccc3)cc2cc1OC`, the GI50 was 45.6 µM (inactive) in the assay on HCT-116; 15.9 µM (inactive) in the assay on RPMI-8226; 36.4 µM (inactive) in the assay with 786-0; 26.5 µM (inactive) in the assay with OVCAR-8; 23 µM (inactive) with PC-3; 20 µM (inactive) in the assay with MOLT-4. The GI50 was 19.5 µM (inactive) in the assay on SF-295; 19.8 µM (inactive) in the assay on U-251; 26 µM (inactive) in the assay with NCI/ADR-RES; 28.5 µM (inactive) in the assay on A549; 30.7 µM (inactive) in the assay on M14; 19.1 µM (inactive) with IGROV-1. Moreover, the GI50 with MDA-MB-435 is 26.9 µM (inactive); in the assay with UO-31, 29.5 µM (inactive); in the assay on OVCAR-5, 33.2 µM (inactive); in the assay on MCF7 it was 18.5 µM (inactive); in the assay on SF-268 it was 35.7 µM (inactive); with DU-145 it was 37.3 µM (inactive). Also, in the assay on HOP-92, the GI50 is 17.5 µM (inactive).
Regarding `COC(=O)c1ccc(/C=C/c2cc(O)ccc2O)cc1`, the GI50 in the assay with HCT-116 was 5.75 µM (inactive); in the assay on RPMI-8226 it was 0.333 µM (active); with 786-0, 3.05 µM (inactive); with OVCAR-8, 2.67 µM (inactive); in the assay with PC-3 it was 1.48 µM (inactive); with MOLT-4 it was 0.255 µM (active). Moreover, the GI50 is 13.1 µM (inactive) with SF-295; 2.51 µM (inactive) in the assay with U-251; 2.08 µM (inactive) with NCI/ADR-RES; 19.8 µM (inactive) with A549; 13.1 µM (inactive) in the assay with M14; 2.62 µM (inactive) in the assay on IGROV-1. Moreover, the GI50 is 3.21 µM (inactive) in the assay with MDA-MB-435; 1.47 µM (inactive) with UO-31; 5.07 µM (inactive) in the assay on OVCAR-5; 5.14 µM (inactive) in the assay on MCF7; 2.15 µM (inactive) in the assay on SF-268; 14.9 µM (inactive) in the assay with DU-145. Moreover, the GI50 with HOP-92 was 2.44 µM (inactive).
For the compound `CC1OC(O[C@H]2C3C=CO[C@@H](OC4OC(CO)C(O)C(O)C4O)C3[C@@]3(COC(=O)/C=C/c4ccc(O)cc4)O[C@@H]23)C(O)C(O)C1O` (stereo partly specified), the GI50 in the assay with HCT-116, with RPMI-8226, with 786-0, with OVCAR-8, in the assay with PC-3 and in the assay with MOLT-4 was > 100 µM (inactive) throughout. Moreover, the GI50 with SF-295, in the assay with U-251, with NCI/ADR-RES, in the assay with A549, in the assay with M14 and with IGROV-1 was > 100 µM (inactive) each time. In addition, the GI50 in the assay on MDA-MB-435, in the assay on UO-31, in the assay on OVCAR-5, with MCF7, with SF-268 and with DU-145 was > 100 µM (inactive) throughout. In the assay on HOP-92, the GI50 is > 100 µM (inactive).
With `NC(Cc1c[nH]c(I)n1)C(=O)O` (stereo unspecified), the GI50 with HCT-116 was 81.5 µM (inactive); with RPMI-8226 it was > 100 µM (inactive); in the assay with 786-0, > 100 µM (inactive); in the assay with OVCAR-8, 81.5 µM (inactive); in the assay with PC-3, > 100 µM (inactive); in the assay on MOLT-4, > 100 µM (inactive). The GI50 in the assay on SF-295 is > 100 µM (inactive); in the assay on U-251, > 100 µM (inactive); in the assay on NCI/ADR-RES it was 37.1 µM (inactive); in the assay on A549, > 100 µM (inactive); in the assay with M14, > 100 µM (inactive); in the assay on IGROV-1, 67 µM (inactive). For the same compound, the GI50 with MDA-MB-435 is > 100 µM (inactive); in the assay on UO-31 it was > 100 µM (inactive); in the assay with OVCAR-5, > 100 µM (inactive); in the assay with MCF7 it was 41.4 µM (inactive); in the assay with SF-268 it was 84.9 µM (inactive); in the assay with DU-145 it was > 100 µM (inactive). Further, the GI50 in the assay on HOP-92 is 25.6 µM (inactive).
As for `CC(=O)/C(=C/c1ccccc1F)C(=O)c1ccccc1`, the GI50 was 27.8 µM (inactive) with HCT-116; 18.3 µM (inactive) in the assay on RPMI-8226; 31.7 µM (inactive) in the assay on 786-0; 21.6 µM (inactive) in the assay with OVCAR-8; 27.7 µM (inactive) in the assay with PC-3; 2.19 µM (inactive) in the assay with MOLT-4. In addition, the GI50 with SF-295 is 43.8 µM (inactive); in the assay with U-251 it was 29.6 µM (inactive); with NCI/ADR-RES it was 29.1 µM (inactive); with A549, 57 µM (inactive); in the assay on M14, 56 µM (inactive); in the assay on IGROV-1, 44.2 µM (inactive). The GI50 in the assay with MDA-MB-435 was 37.9 µM (inactive); with UO-31 it was 34.1 µM (inactive); with OVCAR-5, > 100 µM (inactive); in the assay on MCF7, 37.2 µM (inactive); in the assay with SF-268, 33.2 µM (inactive); in the assay with DU-145, 33.6 µM (inactive). The GI50 in the assay with HOP-92 was 91.8 µM (inactive).
Take `COC1CC(O[C@H]2CC[C@@]3(C)[C@@H](CC[C@]4(O)[C@@H]3CC[C@]3(C)[C@@H](C(C)=O)[C@H](OC(=O)CC(C)C)[C@@H](OC(=O)c5ccccc5)[C@@]34O)C2)OC(C)C1OC1CC(OC)C(OC2OC(C)C(O)C(OC)C2O)C(C)O1` (stereo partly specified): the GI50 with HCT-116 was 10.4 µM (inactive); in the assay on RPMI-8226, 6.12 µM (inactive); in the assay on 786-0 it was > 25 µM (inactive); with OVCAR-8 it was 20 µM (inactive); in the assay on PC-3, 11.7 µM (inactive); in the assay with MOLT-4, 7.08 µM (inactive). The GI50 with SF-295 is 16.9 µM (inactive); in the assay on U-251 it was 18 µM (inactive); in the assay on NCI/ADR-RES, 19.9 µM (inactive); with A549, 7.89 µM (inactive); in the assay on M14, 16.1 µM (inactive); with IGROV-1, 11.6 µM (inactive). Also, the GI50 with MDA-MB-435 was 12.2 µM (inactive); with UO-31, 9.46 µM (inactive); in the assay on OVCAR-5 it was > 25 µM (inactive); in the assay with MCF7, 11.4 µM (inactive); with SF-268, > 25 µM (inactive); in the assay with DU-145, > 25 µM (inactive). The GI50 in the assay on HOP-92 was 6.55 µM (inactive).
Consider `N=C(N)N/N=C/c1c(-c2ccc(Cl)cc2)nc2n1CCS2`, for which the GI50 with HCT-116 is 4.25 µM (inactive); in the assay with RPMI-8226, 7.53 µM (inactive); with 786-0, 4.31 µM (inactive); with OVCAR-8, 15.2 µM (inactive); in the assay on PC-3, 4.14 µM (inactive); with MOLT-4 it was 2.68 µM (inactive). Moreover, the GI50 was 3.53 µM (inactive) in the assay with SF-295; 12.9 µM (inactive) in the assay on U-251; 16.4 µM (inactive) in the assay with NCI/ADR-RES; 10 µM (inactive) with A549; 2.94 µM (inactive) in the assay with M14; 13.9 µM (inactive) in the assay with IGROV-1. Moreover, the GI50 in the assay with MDA-MB-435 is 11.9 µM (inactive); in the assay on UO-31, 12.7 µM (inactive); with OVCAR-5, 15.1 µM (inactive); in the assay on MCF7 it was 11.5 µM (inactive); in the assay with SF-268 it was 11.5 µM (inactive); in the assay with DU-145 it was 12.8 µM (inactive). Further, in the assay with HOP-92, the GI50 was 10.7 µM (inactive).
